Results from US10295552B2, “Method for diagnosis of primary hyperaldosteronism” (ATTOQUANT D[…], priority 2013, dated 2019).

Assays:
[1] = test system: aldosterone-to-renin ratio (ARR); experiment: Aldosterone-to-renin ratio (ARR) before and 4 h after a single dose of a RAS blocker; assay type: in vivo, human; conditions: 5 healthy volunteers, 4 h post administration vs predose
Experimental: (§1) FIG. 5: Comparison of the impact of RAS blocker administration on the ARR (upper panel) and the AA2R (lower panel). Plasma samples were collected from healthy volunteers before (Predose) and 4 h post administration of a single dose of an ACE inhibitor (left), renin inhibitor (middle) or angiotensin receptor blocker (ARB, right). Plasma aldosterone concentration, equilibrium angiotensin II concentration and active renin concentration were measured and the ARR and the AA2R was calculated for each sample. For calculation of the ARR, aldosterone concentrations in ng/L were divided by the plasma active renin concentration in ng/L. For calculation of the AA2R, aldosterone concentrations in pmol/L were divided by Ang II concentrations in pmol/L. Mean values of 5 healthy volunteers+/−SEM are shown in the graphs.
Single doses of three different anti-hypertensive drugs were administered to 5 healthy volunteers on 3 different treatment days separated by one week. 4 h following administration of a single dose of 10 mg Enalapril (ACE-Inhibitor), 50 mg Losartan (ARB) or 150 mg Aliskiren (Renin-Inhibitor), heparin blood was collected by venous puncture and plasma was separated by centrifugation. Samples were frozen at −80° C. till analysis.
StSable isotope-labeled aldosterone was added to the stabilized plasma samples at a concentration of 500 pg/ml for internal standardization. Following C18-based solid-phase-extraction, samples were subjected to mass spectrometry analysis using a reversed-phase analytical column (Acquity UPLC® C18, Waters) operating in line with a XEVO TQ-S triple quadrupole mass spectrometer (Waters) in MRM mode. Two different mass transitions were measured per analyte and standard and the concentrations were calculated by relating endogenous signals to internal standard signals under consideration of the corresponding response factors determined by calibration curves in human blank plasma.

[2] = test system: aldosterone-to-angiotensin II ratio (AA2R); experiment: Aldosterone-to-angiotensin II ratio (AA2R) before and 4 h after a single dose of a RAS blocker; assay type: in vivo, human; conditions: 5 healthy volunteers, 4 h post administration vs predose, heparin plasma equilibrated 60 min at 37° C.
Experimental: as §1
Single doses of three different anti-hypertensive drugs were administered to 5 healthy volunteers on 3 different treatment days separated by one week. […]
Equilibrium Ang II levels were determined by quantification of the steady-state angiotensin peptide levels in equilibrated heparin plasma samples. […] Following equilibration, plasma angiotensin peptide levels were stabilized by the addition of protease inhibitors and equilibrium peptide levels were subsequently quantified by mass spectrometry. […] Two different mass transitions were measured per analyte and standard and the concentrations were calculated by relating endogenous signals to internal standard signals under consideration of the corresponding response factors determined by calibration curves in human blank plasma.
StSable isotope-labeled aldosterone was added to the stabilized plasma samples at a concentration of 500 pg/ml for internal standardization. […] Two different mass transitions were measured per analyte and standard and the concentrations were calculated by relating endogenous signals to internal standard signals under consideration of the corresponding response factors determined by calibration curves in human blank plasma.

Structure (SMILES)	change in the ARR (aldosterone ng/L divided by plasma active renin concentration ng/L) [1]	change in the AA2R (aldosterone pmol/L divided by equilibrium Ang II pmol/L) [2]
COCCCOc1cc(C[C@@H](C[C@H](N)[C@@H](O)C[C@H](C(=O)NCC(C)(C)C(N)=O)C(C)C)C(C)C)ccc1OC [Aliskiren]	highly significant and profound decrease	did not significantly affect
CCOC(=O)[C@H](CCc1ccccc1)N[C@@H](C)C(=O)N1CCC[C@H]1C(=O)O [Enalapril]	highly significant and profound decrease	did not significantly affect
CCCCc1nc(Cl)c(CO)n1Cc1ccc(-c2ccccc2-c2nn[nH]n2)cc1 [Losartan]	highly significant and profound decrease	significant decrease
